For 29 compounds, IC50 results are on record in patent publication US9994546B2, “Cyclopropylamines as LSD1 inhibitors” (Incyte Corporation, priority 2014, dated 2018).

As usually defined, the pIC50 is −log10 of the IC50, conventionally taken in molar units.

The experiment addresses LSD-1 enzyme (Homo sapiens (Human), UniProt O60341). Briefly: LANCE LSD1/KDM1A demethylase assay (LSD1 histone demethylase biochemical assay). Conditions: 1 nM LSD-1 enzyme, 1 hour preincubation at 25° C., 0.4 μM biotin-labeled Histone H3 peptide substrate. Here is the method:
LANCE LSD1/KDM1A demethylase assay—10 μL of 1 nM LSD-1 enzyme (ENZO BML-SE544-0050) in the assay buffer (50 mM Tris, pH 7.5, 0.01% Tween-20, 25 mM NaCl, 5 mM DTT) were preincubated for 1 hour at 25° C. with 0.8 μL compound/DMSO dotted in black 384 well polystyrene plates. […] After stopping the reactions plates were incubated for 30 minutes and read on a PHERAstar FS plate reader (BMG Labtech).
(Time-resolved FRET reads energy transfer from a long-lived donor to a nearby acceptor.)

pIC50: −log10 of the molar value. Some results are limits rather than exact numbers.

As for `CC(C)NC(=O)N1CCC(CC#N)(N2CC(CN[C@@H]3C[C@H]3c3ccccc3)C2)CC1` (relative stereo) [Example 24, 4-(Cyanomethyl)-N-isopropyl-4-(3-{[(trans-2-phenylcyclopropyl)amino]methyl}azetidin-1-yl)piperidine-1-carboxamide], the pIC50 was not below 7.00. With `N#CCC1(N2CC(CN[C@@H]3C[C@H]3c3ccccc3)C2)CCN(C(=O)Nc2ccc(F)cc2)CC1` (relative stereo) [Example 25, 4-(Cyanomethyl)-N-(4-fluorophenyl)-4-(3-{[(trans-2-phenylcyclopropyl)amino]methyl}azetidin-1-yl)piperidine-1-carboxamide], the pIC50 is not below 7.00. Turning to `N#CCC1(N2CC(CN[C@@H]3C[C@H]3c3ccccc3)C2)CNC1` (relative stereo) [Example 26, (3-{[(trans-2-Phenylcyclopropyl)amino]methyl}-1,3′-biazetidin-3′-yl)acetonitrile], the pIC50 is not below 7.00.

For the compound `CN1CCC(N2CC(CN[C@@H]3C[C@H]3c3ccccc3)C2)CC1` (relative stereo) [Example 28, N-{[1-(1-Methylpiperidin-4-yl)azetidin-3-yl]methyl}-trans-2-phenylcyclopropanamine], the pIC50 is not below 7.00. On to `c1ccc([C@@H]2C[C@H]2NCC2CN(C3CCN(c4ccccc4)CC3)C2)cc1` (relative stereo) [Example 29, Trans-2-phenyl-N-{[1-(1-phenylpiperidin-4-yl)azetidin-3-yl]methyl}cyclopropanamine], for which the pIC50 is not below 7.00.

Take `CCS(=O)(=O)N1CC(CC#N)(N2CCC(CN[C@@H]3C[C@H]3c3ccccc3)CC2)C1` (relative stereo) [Example 31, [1-(Ethylsulfonyl)-3-(4-{[(trans-2-phenylcyclopropyl)amino]methyl}piperidin-1-yl)azetidin-3-yl]acetonitrile]: the pIC50 is 6.30 to 7.00. With `N#CCC1(N2CCC(CN[C@@H]3C[C@H]3c3ccccc3)CC2)CCC1` (relative stereo) [Example 32, [1-(4-{[(trans-2-Phenylcyclopropyl)amino]methyl}piperidin-1-yl)cyclobutyl]acetonitrile] the figure was not below 7.00; with `N#CCC1(N2CCC(CN[C@@H]3C[C@H]3c3ccccc3)CC2)CNC1` (relative stereo) [Example 33, [3-(4-{[(trans-2-Phenylcyclopropyl)amino]methyl}piperidin-1-yl)azetidin-3-yl]acetonitrile], not below 7.00. `N#CCC1(N2CCC(CN[C@@H]3C[C@H]3c3ccccc3)CC2)CN(c2ncccc2C#N)C1` (relative stereo) [Example 34, 2-[3-(Cyanomethyl)-3-(4-{[(trans-2-phenylcyclopropyl)amino]methyl}piperidin-1-yl)azetidin-1-yl]nicotinonitrile] showed a pIC50 not below 7.00. The value for `CC(C)NC(=O)c1cc(F)c(N2CC(CC#N)(N3CCC(CN[C@@H]4C[C@H]4c4ccccc4)CC3)C2)cc1F` (relative stereo) [Example 35, 4-[3-(Cyanomethyl)-3-(4-{[(trans-2-phenylcyclopropyl)amino]methyl}piperidin-1-yl)azetidin-1-yl]-2,5-difluoro-N-isopropylbenzamide] was not below 7.00; that for `N#CCC1(N2CCC(CN[C@@H]3C[C@H]3c3ccccc3)CC2)CN(c2ncccc2C(F)(F)F)C1` (relative stereo) [Example 36, {3-(4-{[(trans-2-Phenylcyclopropyl)amino]methyl}piperidin-1-yl)-1-[3-(trifluoromethyl)pyridin-2-yl]azetidin-3-yl}acetonitrile] was not below 7.00. In turn, `N#CCC1(N2CCC(CN[C@@H]3C[C@H]3c3ccccc3)CC2)CN(c2ccc(C(F)(F)F)cn2)C1` (relative stereo) [Example 37, {3-(4-{[(trans-2-Phenylcyclopropyl)amino]methyl}piperidin-1-yl)-1-[5-(trifluoromethyl)pyridin-2-yl]azetidin-3-yl}acetonitrile] had a pIC50 not below 7.00. As for `N#CCC1(N2CCC(CN[C@@H]3C[C@H]3c3ccccc3)CC2)CN(c2cccc(Cl)c2C#N)C1` (relative stereo) [Example 38, 2-Chloro-6-[3-(cyanomethyl)-3-(4-{[(trans-2-phenylcyclopropyl)amino]methyl}piperidin-1-yl)azetidin-1-yl]benzonitrile], the pIC50 is not below 7.00.

Consider `N#CCC1(N2CCC(CN[C@@H]3C[C@H]3c3ccccc3)CC2)CN(c2ccccc2C#N)C1` (relative stereo) [Example 39, 2-[3-(Cyanomethyl)-3-(4-{[(trans-2-phenylcyclopropyl)amino]methyl}piperidin-1-yl)azetidin-1-yl]benzonitrile], for which the pIC50 was not below 7.00. For the compound `N#CCC1(N2CCC(CN[C@@H]3C[C@H]3c3ccccc3)CC2)CN(c2ccc(C#N)cc2)C1` (relative stereo) [Example 40, 4-[3-(Cyanomethyl)-3-(4-{[(trans-2-phenylcyclopropyl)amino]methyl}piperidin-1-yl)azetidin-1-yl]benzonitrile], the pIC50 was not below 7.00.

In turn, `COC(=O)N1CC(CC#N)(N2CCC(CN[C@@H]3C[C@H]3c3ccccc3)CC2)C1` (relative stereo) [Example 41, Methyl 3-(cyanomethyl)-3-(4-{[(trans-2-phenylcyclopropyl)amino]methyl}piperidin-1-yl)azetidine-1-carboxylate] had a pIC50 not below 7.00.

As to `N#CCC1(N2CCC(CN[C@@H]3C[C@H]3c3ccccc3)CC2)CN(C(=O)Nc2ccc(F)cc2F)C1` (relative stereo) [Example 42, 3-(Cyanomethyl)-N-(2,4-difluorophenyl)-3-(4-{[(trans-2-phenylcyclopropyl)amino]methyl}piperidin-1-yl)azetidine-1-carboxamide], the pIC50 was not below 7.00. Compound `N#CCC1(N2CCC(CN[C@@H]3C[C@H]3c3ccccc3)CC2)CN(C(=O)Nc2cccc(Cl)c2F)C1` (relative stereo) [Example 43, N-(3-Chloro-2-fluorophenyl)-3-(cyanomethyl)-3-(4-{[(trans-2-phenylcyclopropyl)amino]methyl}piperidin-1-yl)azetidine-1-carboxamide] had a pIC50 not below 7.00. Take `N#CCC1(N2CCC(CN[C@@H]3C[C@H]3c3ccccc3)CC2)CN(C(=O)c2cc(F)cc(F)c2)C1` (relative stereo) [Example 44, [1-(3,5-Difluorobenzoyl)-3-(4-{[(trans-2-phenylcyclopropyl)amino]methyl}piperidin-1-yl)azetidin-3-yl]acetonitrile]: the pIC50 is not below 7.00.

With `N#CCC1(N2CCC(CN[C@@H]3C[C@H]3c3ccccc3)CC2)CN(C(=O)c2ccccc2)C1` (relative stereo) [Example 45, [1-Benzoyl-3-(4-{[(trans-2-phenylcyclopropyl)amino]methyl}piperidin-1-yl)azetidin-3-yl]acetonitrile], the pIC50 is not below 7.00.

As to `N#CCC1(N2CCC(CN[C@@H]3C[C@H]3c3ccccc3)CC2)CN(C(=O)c2ccccc2F)C1` (relative stereo) [Example 46, [1-(2-Fluorobenzoyl)-3-(4-{[(trans-2-phenylcyclopropyl)amino]methyl}piperidin-1-yl)azetidin-3-yl]acetonitrile], the pIC50 was not below 7.00. The compound `N#CCC1(N2CCC(CN[C@@H]3C[C@H]3c3ccccc3)CC2)CN(C(=O)c2cccc(F)c2)C1` (relative stereo) [Example 47, [1-(3-Fluorobenzoyl)-3-(4-{[(trans-2-phenylcyclopropyl)amino]methyl}piperidin-1-yl)azetidin-3-yl]acetonitrile] had a pIC50 not below 7.00.

`N#CCC1(N2CCC(CN[C@@H]3C[C@H]3c3ccccc3)CC2)CN(C(=O)c2ccc(F)cc2)C1` (relative stereo) [Example 48, [1-(4-Fluorobenzoyl)-3-(4-{[(trans-2-phenylcyclopropyl)amino]methyl}piperidin-1-yl)azetidin-3-yl]acetonitrile] had a pIC50 not below 7.00. In turn, `CN1CC(CC#N)(N2CCC(CN[C@@H]3C[C@H]3c3ccccc3)CC2)C1` (relative stereo) [Example 49, [1-Methyl-3-(4-{[(trans-2-phenylcyclopropyl)amino]methyl}piperidin-1-yl)azetidin-3-yl]acetonitrile] gave a pIC50 not below 7.00. The compound `O=C(O)CC1(N2CCC(CN[C@@H]3C[C@H]3c3ccccc3)CC2)CNC1` (relative stereo) [Example 50, [3-(4-{[(trans-2-Phenylcyclopropyl)amino]methyl}piperidin-1-yl)azetidin-3-yl]acetic acid] gave a pIC50 not below 7.00. Consider `CNC(=O)CC1(N2CCC(CN[C@@H]3C[C@H]3c3ccccc3)CC2)CNC1` (relative stereo) [Example 51, N-Methyl-2-(3-(4-((trans-2-phenylcyclopropylamino)methyl)piperidin-1-yl)azetidin-3-yl)acetamide], for which the pIC50 was not below 7.00.

The compound `CN(C)C(=O)CC1(N2CCC(CN[C@@H]3C[C@H]3c3ccccc3)CC2)CNC1` (relative stereo) [Example 52, N,N-Dimethyl-2-(3-(4-((trans-2-phenylcyclopropylamino)methyl)piperidin-1-yl)azetidin-3-yl)acetamide] showed a pIC50 not below 7.00.

In the case of `C[C@H](NC(=O)c1cc(F)c(N2CC(CC#N)(N3CC(CNC4CC4c4ccccc4)C3)C2)cc1F)C(F)(F)F` (stereo partly drawn) [Example 27, 4-(3′-(Cyanomethyl)-3-{[(trans-2-phenylcyclopropyl)amino]methyl}-1,3′-biazetidin-1′-yl)-2,5-difluoro-N-[(1S)-2,2,2-trifluoro-1-methylethyl]benzamide], the pIC50 was not below 7.00. The compound `N#CC1(c2ccccc2)CCC(N2CC(CNC3CC3c3ccccc3)C2)CC1` (stereo not drawn) [Example 30, 1-Phenyl-4-(3-{[(trans-2-phenylcyclopropyl)amino]methyl}azetidin-1-yl)cyclohexanecarbonitrile] showed a pIC50 not below 7.00.
